# Assays:
# [1] = target: T1, M2-type muscarinic cholinergic receptor (Cavia porcellus, UniProt H0VRN8); assay: Affinity for M2-type muscarinic cholinergic receptor: displacement of [3H]-N-methylscopolamine on guinea-pig ileum smooth muscle homogenate; type: binding; conditions: displacement of [3H]-NMS (0.3 nM), 20 min at 30° C., pH 7.5
# T1 construct: on a homogenate of smooth muscle of guinea-pig ileum; from tissue; host or cells: guinea-pig ileum smooth muscle homogenate
# T1 sequence (H0VRN8 1-466): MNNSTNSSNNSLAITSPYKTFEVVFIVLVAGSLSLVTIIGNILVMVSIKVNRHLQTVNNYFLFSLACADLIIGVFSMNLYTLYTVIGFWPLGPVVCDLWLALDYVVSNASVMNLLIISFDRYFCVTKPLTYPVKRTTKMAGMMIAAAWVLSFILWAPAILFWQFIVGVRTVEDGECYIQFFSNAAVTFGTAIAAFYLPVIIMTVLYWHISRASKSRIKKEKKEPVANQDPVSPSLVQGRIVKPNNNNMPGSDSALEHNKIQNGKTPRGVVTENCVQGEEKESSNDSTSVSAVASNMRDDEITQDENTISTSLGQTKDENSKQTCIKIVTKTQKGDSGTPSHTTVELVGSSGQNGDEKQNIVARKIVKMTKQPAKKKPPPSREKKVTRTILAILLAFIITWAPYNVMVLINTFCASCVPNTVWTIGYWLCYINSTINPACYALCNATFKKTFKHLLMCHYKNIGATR
# Source text: (§1) In vitro, we studied the interaction of the products (II) with tritiated pirenzepine and tritiated N-methylscopolamine bound with a high affinity to membranes of rat hippocampus and membranes of smooth muscle of guinea-pig ileum, respectively.
# B) Test for affinity for the M2 -type muscarinic cholinergic receptor.
# The interaction with the M2 -type muscarinic receptors was studied by in vitro measurement, on a homogenate of smooth muscle of guinea-pig ileum, of the displacement of tritiated N-methylscopolamine ([^3 H]-NMS) from its specific binding sites. Aliquots (50 μl) of a 0.625% (w/v) homogenate of smooth guinea-pig muscle in HEPES buffer (20 mM) containing NaCl (100 mM) and MgCl2 (10 mM) (final pH: 7.5) are incubated for 20 min at 30° C. in the presence of [^3 H]-NMS (85 Ci/mmol; final concentration: 0.3 nM) and increasing concentrations of test products. The final volume is 1 ml. The reaction is stopped by centrifugation for 5 min at 15,000×g. The non-specific binding is determined in the presence of 10 μmol-l of atropine sulfate (Ref.: Hammer R., Berrie C. P., Birdsall N. I. M., Burgen A. S. V. and Hulme E. C., Nature, 283, 90-92, 1980; Hulme E. C., Birdsall N. I. M., Burgen A. S. V. and Mettha P., Mol. Pharmacol., 14, 737-750, 1978).
# (§2) Table 3 indicates the affinities of the products of the invention for the M1 and M2 receptors. The results are expressed as 50 percent inhibitory concentrations (IC50), i.e. the concentration (in μM) which causes a 50% inhibition of the binding of the tritiated ligand to the membrane receptors. The IC50 for displacement of ^3 H-pirenzepine represents the affinity for the M1 receptor; the IC50 for displacement of ^3 H-NMS represents the affinity for the M2 receptor.
# (§3) The Table also indicates, in the 3rd column, the ratio r of the M2 and M1 IC50 values, which expresses the selectivity of the products towards the M1 receptor.
# [2] = target: T2, M1-type muscarinic cholinergic receptor (Rattus norvegicus, UniProt P08482); assay: Affinity for M1-type muscarinic cholinergic receptor: displacement of [3H]-pirenzepine on rat hippocampus homogenate; type: binding; conditions: for IC50: displacement of [3H]-PZ (1 nM), rat hippocampus homogenate, 2 h at 4° C., pH 7.40; for r = M2/M1 (ratio of the M2 and M1 IC50 values, selectivity towards the M1 receptor): ratio of IC50 3H-NMS (guinea-pig ileum) to IC50 3H-PZ (rat hippocampus)
# T2 construct: on a homogenate of rat hippocampus; from tissue; host or cells: rat hippocampus homogenate
# T2 sequence (P08482 1-460): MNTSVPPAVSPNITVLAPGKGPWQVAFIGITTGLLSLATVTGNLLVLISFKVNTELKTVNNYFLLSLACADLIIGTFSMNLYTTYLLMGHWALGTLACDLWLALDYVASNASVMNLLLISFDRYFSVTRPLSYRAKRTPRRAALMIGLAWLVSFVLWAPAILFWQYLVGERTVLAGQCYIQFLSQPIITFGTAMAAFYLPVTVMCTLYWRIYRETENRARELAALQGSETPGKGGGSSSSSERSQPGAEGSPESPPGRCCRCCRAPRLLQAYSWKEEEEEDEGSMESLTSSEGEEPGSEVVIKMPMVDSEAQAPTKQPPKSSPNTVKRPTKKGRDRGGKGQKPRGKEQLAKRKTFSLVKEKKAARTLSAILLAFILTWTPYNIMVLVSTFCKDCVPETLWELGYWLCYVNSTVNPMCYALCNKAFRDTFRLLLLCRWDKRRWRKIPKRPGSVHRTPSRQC
# Source text: as §1
# A) Test for affinity for the M1 -type muscarinic cholinergic receptor
# The interaction of molecules with the M1 -type muscarinic receptors was studied by in vitro measurement, on a homogenate of rat hippocampus, of the displacement of tritiated pirenzepine ([^3 H]-PZ) from its specific binding sites. Aliquots (100 μl) of a 5% (w/v) homogenate of rat hippocampus in an Na2 HPO4 buffer (50 mM, pH 7.40) are incubated for 2 h at 4° C. in the presence of [^3 H]-PZ (76 Ci/mmol; final concentration: 1 nM) and increasing concentrations of test products. The final volume is 2 ml. The reaction is stopped by centrifugation for 10 min at 50,000×g. After decantation and washing of the residues, the bound radioactivity is counted by liquid scintillation. The non-specific binding is determined in the presence of 10 μmol/l of atropine sulfate. The 50% inhibitory concentration (IC50) is determined graphically (Ref.: Watson J. D., Roeskoe W. R. and Yamamura H. I., Life Sci., 31, 2019-2029, 1982).
# as §2, §3
# [3] = test system: rotational behavior induced by intrastriatal pirenzepine (M1 central muscarinic cholinergic receptors); assay: Antagonism of rotational behavior induced by intrastriatal injection of pirenzepine in mice; type: in vivo, mice (female, Swiss, CD 1 printed as DC 1, Charles River); conditions: 3 mg/kg p.o., 4 hours before pirenzepine 1 μg into right striatum; 10 animals per dose; Student t test, *p < 0.05, **p < 0.01
# Protocol: The compounds of formula (II) were also subjected to an in vivo study. Pirenzepine (PZ) is a specific antagonist of ligands for the M1 central muscarinic cholinergic receptors. The intrastriatal injection of PZ into mice induces rotational behavior. The antagonism of this behavior by the test products was studied. The products according to the invention are administered orally after solubilization in distilled water or suspension in a 5% solution of gum arabic. The control animals receive an injection of the pure solvent under the same conditions. The animals used are female mice (Swiss, DC 1, Charles River, France) with a body weight of between 25 and 30 grams. Pirenzepine is dissolved in a phosphate buffer; the pH of the solution is 6. The test products or their solvents are administered orally in a volume of 0.4 ml per 20 g of body weight, 4 hours before a direct injection of pirenzepine at a dose of 1 μg of product in 1 μl of solvent into the right striatum of the mouse, according to the method described by P. Worms et al. in Psychopharmacology 1987, 93, 489-493. The number of contralateral rotations (rotations in the opposite direction to the side injected) was counted for three 2-minute periods after the injection of pirenzepine: minutes 2 to 4, 8 to 10 and 13 to 15. Each treatment involves 10 animals per dose. For each treatment, the total number of rotations and the percentage antagonism compared with the control group are calculated. The results obtained with the products of formula (II) administered orally at a dose of 3 mg/kg of body weight are collated in Table 4.
# cholinergic receptors = assay: Ligand properties for the cholinergic receptors (subsequent studies); type: binding
# [4] = French patents 2 141 697, 2 510 997, 2 510 998; cited from earlier work
Structure (SMILES),IC50 [1] [nM],IC50 [2] [nM],"r = M2/M1 (ratio of the M2 and M1 IC50 values, selectivity towards the M1 receptor) [2]",% inhibition of rotations [3] [%],properties as a ligand for the cholinergic receptors (in words) (cholinergic receptors),antidepressant properties [4]
CCc1cc(NCCN(CC)CC)nnc1-c1ccccc1 [SR 96180 A],1000,70,14,-38,–,–
CCCc1cc(NCCN2CCOCC2)nnc1-c1ccccc1 [SR 96186 A],18000,600,30,-41,–,–
"Cc1cc(NCCN2CCOCC2)nnc1-c1ccccc1 [(I), 3-(2-morpholinoethylamino)-5-methyl-6-phenylpyridazine]",–,–,–,–,possesses valuable properties as a ligand for the cholinergic receptors,antidepressant properties of moderate intensity
CCN(CC)CCNc1cc(C)c(-c2ccccc2)nn1 [SR 96150 A],2800,60,47,-49,–,–
CCCc1cc(NCCN(CC)CC)nnc1-c1ccccc1 [SR 96187 A],3500,400,9,-37,–,–
CCc1cc(NCCN2CCOCC2)nnc1-c1ccccc1 [SR 96169 A],30000,3700,8,-46,–,–
"Cc1cc(NCCN2CCOCC2)nnc1-c1ccccc1.O=C(O)C(=O)O.O=C(O)C(=O)O [CM 30316, 3-(2-Morpholinoethylamino)-5-methyl-6-phenylpyridazine dioxalate]",100000,550,182,-20,–,–

# From patent US5081119A, “Use of 5-alkylpyridazine derivatives as drugs active on the cholinergic system” (priority 1989, dated 1992)
